In paper PMC7010297, “How the initiating ribosome copes with ppGpp to translate mRNAs” (PLoS Biology, 2020):
“And” between values parts separate entries of the source, which are not always exact repeats. Equal values may be shown once. Read-outs that look alike come from different tables or passages of the source.

Key:
[1] = biological target: T1, 30S IC (30S-bound IF2, Bpy-tRNAi) (Escherichia coli, UniProt P0A705); experiment: 30S IC formation measured by MST at increasing concentrations of IF2 with guanosine nucleotides; assay type: binding; conditions: Fig 2A
T1 construct: 6xHis (N); made in house
Excerpt: To monitor the interaction of initiator tRNA and 30S ribosomal subunits, we used Microscale Thermophoresis (MST) with a fluorescently labelled initiator tRNA (Bpy-tRNAi) (Fig 1B). MST allows to measure fluorescence in a constrained space. Changes on the readout derive from molecular drifts resulting from small thermal equilibrium perturbations. Upon equilibrium perturbations, the patterns of Bpy-tRNAi migration away from the observation space are related to bound and unbound states (Fig 1B). […] On the contrary, a decrease in thermophoresis indicated the dissociation of Bpy-tRNAi. The relation between fluorescence measured at both equilibriums (Ff to Fi, after and prior to the perturbation, respectively) as a function of ligand concentration allowed to determine dissociation constants of the interaction (Fig 1C).
(§1) Continuous lines indicate nonlinear regression fittings with a quadratic equation. Three measurements were performed; mean and standard deviation are plotted (S1 Data). (B) as (A) to measure the concentration dependence for each tested guanosine nucleotide at constant IF2 (1 μM). […] Continuous lines show best fits using exponential functions. (D) Formation of 70S IC as measured by Bpy-tRNAi accommodation in the P site of the ribosome; 0.1 μM 30S ICs were formed with Bpy-tRNAi and rapidly mixed with 0.3 μM 50S subunits on a stopped-flow apparatus as described in [14]. Colors are as in (C). Continuous lines show best fits using an exponential function for a single reaction step. Each stopped-flow trace results from the mean of 5 to 7 replicates.

70S IC = biological target: T2, 70S IC (Escherichia coli, UniProt P0A705); experiment: 70S IC formation by Bpy-tRNAi accommodation, stopped-flow; assay type: biochemical; set-up: K1, best-fit value: unit not given here; conditions: for A0, best-fit value / A1, best-fit value / K1, best-fit value / k2, best-fit value: fit Y=A0+A1*exp(-K1*x)+k2*x; for kfast (s-1) Avg: fluorescence
T2 construct: 6xHis (N); made in house
Procedure: as §1
(§2) (A) Scheme of 70S IC formation. […] Time traces were analyzed by nonlinear regression with exponential terms. […] Formation of 70S IC, as measured by Bpy-tRNAi accommodation in the absence (F) or presence of 200 μM ppGpp (G). Time traces were analyzed by nonlinear regression with one exponential term. […] Continuous lines show best fits using an exponential function for a single reaction step. All time traces are mean values of 5 to 10 replicates. Bar graphs show mean and standard errors (error bars) derived from the nonlinear regression fitting (D,E,H,I) (S1 Data).
(§3) To measure 70S pre-IC formation, a SX-20 stopped-flow instrument (Applied Photophysics, Leatherhead, UK) was set up for LS recording with an excitation wavelength of 430 nm. Scattered light was measured at an angle of 90° without a filter. Pseudo first-order conditions were approximated by using ≥3-fold excess of 50S subunits over 30S ICs; 0.2 μM 30S ICs were rapidly mixed in the instrument with 0.6 μM 50S at 25 °C. Bpy-tRNAi accommodation was measured essentially as described elsewhere. Briefly, 0.2 μM 30S ICs were formed using Bpy-tRNAi and rapidly mixed with 0.6 μM 50S at 25 °C. Fluorescence was excited at 470 nm and measured after a 495-nm longpass filter. Individual traces (6–11 traces) were averaged, and the resulting kinetic curve was approximated by single (F = A0 + A1*exp (-kapp1*t)) or double (F = A0 + A1*exp (-kapp1*t) + A2*exp (-kapp2*t)) exponential fit using Graphpad Prism 6.0 software (GraphPad, San Diego, California).

30S-bound IF2 (30S IC) = biological target: T3, 30S-bound IF2 (30S IC) (Escherichia coli, UniProt P0A705); experiment: ppGpp (or GDP) to GTP competitive assay for 30S IC formation by MST; assay type: binding
T3 construct: 6xHis (N); made in house
Procedure: MST was calculated from the respective fluorescence time dependencies (S3 Fig). […] Symbols as in (B). […] Continuous lines indicate nonlinear regression fittings with quadratic (B and E) or same-site competition (G) functions. Three measurements were performed; mean and standard deviations are plotted (S1 Data).
[…] Symbols are as indicated, 3 measurements were performed, and mean and standard deviation are plotted (S1 Data). Continuous lines show nonlinear regression fittings with a same-site inhibition model. […] (PDF) Click here for additional data file.

[2] = biological target: T4, 70S pre-IC (50S joining to 30S IC) (Escherichia coli, UniProt P0A705); experiment: 70S pre-IC formation by light scattering, stopped-flow; assay type: biochemical; set-up: K1, best-fit value / k2, best-fit value: unit not given here; conditions: for A0, best-fit value / K1, best-fit value / k2, best-fit value: fit Y=A0+A1*exp(-K1*x)+k2*x; for kfast (s-1) Avg: light scattering
T4 construct: 6xHis (N); made in house
Procedure: as §1, §2, §3

T2 sequence (P0A705 whole entry, looked up): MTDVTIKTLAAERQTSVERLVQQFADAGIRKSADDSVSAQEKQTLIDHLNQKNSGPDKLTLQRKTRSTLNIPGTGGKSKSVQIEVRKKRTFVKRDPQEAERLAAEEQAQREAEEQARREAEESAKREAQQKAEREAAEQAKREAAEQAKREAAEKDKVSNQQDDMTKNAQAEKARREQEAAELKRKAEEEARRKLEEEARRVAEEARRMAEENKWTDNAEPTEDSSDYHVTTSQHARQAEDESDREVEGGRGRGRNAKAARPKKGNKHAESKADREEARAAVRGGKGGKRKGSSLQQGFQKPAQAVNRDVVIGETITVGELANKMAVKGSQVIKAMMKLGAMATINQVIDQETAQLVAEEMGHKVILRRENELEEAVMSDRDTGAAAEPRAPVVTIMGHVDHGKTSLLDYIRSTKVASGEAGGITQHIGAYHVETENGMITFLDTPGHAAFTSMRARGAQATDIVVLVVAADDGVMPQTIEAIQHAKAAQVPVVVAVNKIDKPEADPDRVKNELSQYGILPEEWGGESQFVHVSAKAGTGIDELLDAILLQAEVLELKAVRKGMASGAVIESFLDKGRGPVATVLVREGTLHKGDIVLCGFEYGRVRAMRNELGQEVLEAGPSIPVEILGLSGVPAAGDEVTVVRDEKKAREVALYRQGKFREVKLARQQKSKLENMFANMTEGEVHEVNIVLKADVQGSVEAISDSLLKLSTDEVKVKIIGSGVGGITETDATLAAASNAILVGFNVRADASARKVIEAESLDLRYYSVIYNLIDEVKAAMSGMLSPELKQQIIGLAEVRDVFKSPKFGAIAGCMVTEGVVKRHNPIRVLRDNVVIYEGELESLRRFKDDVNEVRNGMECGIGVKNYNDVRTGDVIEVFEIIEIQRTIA
T4 sequence (P0A705 whole entry, looked up): as above
T3 sequence (P0A705 whole entry, looked up): as above
T1 sequence (P0A705 whole entry, looked up): as above

Compound: Nc1nc2c(ncn2[C@@H]2O[C@H](COP(=O)(O)OP(=O)(O)O)[C@@H](O)[C@H]2O)c(=O)[nH]1 [GDP, guanosine diphosphate]
- MST Average ([1]; IF2 0.16 µM): 936.66 a.u.
- MST Replicates (a.u.) ([1]; IF2 0.16 µM, in the presence of the nucleotide): 938.79 a.u. and 935.06 a.u. and 936.14 a.u.
- MST Average ([1]; IF2 0.31 µM): 942.67 a.u.
- MST Replicates (a.u.) ([1]; IF2 0.31 µM): 943.24 a.u. and 941.18 a.u. and 943.58 a.u.
- MST Average ([1]; IF2 0.63 µM): 949.91 a.u.
- MST Replicates (a.u.) ([1]; IF2 0.63 µM): 951.36 a.u. and 947.80 a.u. and 950.56 a.u.
- MST Average ([1]; IF2 1.25 µM): 961.16 a.u.
- MST Replicates (a.u.) ([1]; IF2 1.25 µM): 962.03 a.u. and 959.55 a.u. and 961.91 a.u.
- MST Average ([1]; IF2 2.50 µM): 966.51 a.u.
- MST Replicates (a.u.) ([1]; IF2 2.50 µM): 967.31 a.u. and 965.43 a.u. and 966.81 a.u.
- MST Average ([1]; IF2 5.00 µM): 968.29 a.u.
- MST Replicates (a.u.) ([1]; IF2 5.00 µM): 968.72 a.u. and 967.06 a.u. and 969.08 a.u.
- efficiency (amplitude) of 70S IC formation (Bpy-tRNAi accommodation) (70S IC; 0.2 mM nucleotide, no GTP): reduced efficiencies
- A0, best-fit value (70S IC; mInfA): 0.98
- A1, best-fit value (70S IC; mInfA): 0.0231
- K1, best-fit value (70S IC; mInfA): 1.28
- k2, best-fit value (70S IC; mInfA): -0.00069
- A0, best-fit value (70S IC; mMF1): 0.93
- A1, best-fit value (70S IC; mMF1): 0.07
- K1, best-fit value (70S IC; mMF1): 1.57
- k2, best-fit value (70S IC; mMF1): -0.00092
- Fluorescence Amplitude Avg (70S IC; mRNA mInfA): 0.023
- kfast (s-1) Avg (70S IC; mRNA mInfA): 1.28 s⁻¹
- Fluorescence Amplitude Avg (70S IC; mRNA mMF1): 0.067
- kfast (s-1) Avg (70S IC; mRNA mMF1): 1.57 s⁻¹
- Fluorescence Amplitude Avg (70S IC; mRNA mTufA): 0.062
- kfast (s-1) Avg (70S IC; mRNA mTufA): 2.65 s⁻¹
- A0, best-fit value (70S IC; mTufA): 0.94
- A1, best-fit value (70S IC; mTufA): 0.06
- K1, best-fit value (70S IC; mTufA): 2.65
- k2, best-fit value (70S IC; mTufA): -0.00072
- IC50 (30S-bound IF2 (30S IC); mRNA mInfA, read-out: IC50 Average): 126 µM
- IC50 (30S-bound IF2 (30S IC); mRNA mInfA, read-out: IC50 Replicates): 124 µM and 128 µM and 126 µM
- IC50 (30S-bound IF2 (30S IC); mRNA mMF1, read-out: IC50 Average): 38.6 µM
- IC50 (30S-bound IF2 (30S IC); mRNA mMF1, read-out: IC50 Replicates): 37.5 µM and 39.6 µM and 38.8 µM
- IC50 (30S-bound IF2 (30S IC); mRNA mTufA, read-out: IC50 Average): 173 µM
- IC50 (30S-bound IF2 (30S IC); mRNA mTufA, read-out: IC50 Replicates): 168 µM and 176 µM (2×)
- efficiency (amplitude) of 70S pre-IC formation ([2]; 0.2 mM nucleotide, no GTP): reduced efficiencies
- rapid 70S pre-IC formation in the absence of GTP ([2]; 0.2 mM nucleotide, noncompetitive (S6 Fig)): some transitions
- A0, best-fit value ([2]; mInfA): 1.03
- K1, best-fit value ([2]; mInfA): 1.58
- k2, best-fit value ([2]; mInfA): 0.0017 and 0.00169
- A0, best-fit value ([2]; mMF1): 1.04
- K1, best-fit value ([2]; mMF1): 2.79
- k2, best-fit value ([2]; mMF1): 0.001
- LS amplitude (a.u.) Avg ([2]; mRNA mInfA): 0.028 a.u.
- kfast (s-1) Avg ([2]; mRNA mInfA): 1.58 s⁻¹
- LS amplitude (a.u.) Avg ([2]; mRNA mMF1): 0.027 a.u.
- kfast (s-1) Avg ([2]; mRNA mMF1): 2.79 s⁻¹
- LS amplitude (a.u.) Avg ([2]; mRNA mTufA): 0.058 a.u.
- kfast (s-1) Avg ([2]; mRNA mTufA): 3.39 s⁻¹
- A0, best-fit value ([2]; mTufA): 1.07
- K1, best-fit value ([2]; mTufA): 3.39
- k2, best-fit value ([2]; mTufA): 0.0016 and 0.00162
